{"source": "patent US6538023B1", "about": "“Therapeutic uses of green tea polyphenols for sickle cell disease” (priority 2000, dated 2003)", "test_system": "sickle red blood cells (K-Cl cotransport)", "test": "Inhibition of dense cell formation triggered by 500 mM urea (K-Cl cotransport) in sickle red blood cells", "type": "cell-based, human", "conditions": "37 centigrade, 3 hours; for inhibition of dense cell formation (FIG. 4): 0.6 mM, oxygenated and deoxygenated conditions; for inhibition of dense cell formation: hematocrit 2%", "description": "The reaction medium consists of: 150 mM NaCl, 1 mM MgSO4, 10 mM HEPES buffer and 10 mM glucose. The osmolarity of the medium was adjusted to 290 mOsm/kg using a freezing point osmometer and the pH was adjusted to 7.4\nFor in vitro tests, blood was obtained from adult sickle cell patients (using acid-citrate-dextrose as an anticoagulant) whose hemoglobin F content is less than 1% and whose content of irreversibly sickled cells is less than 10%. The blood could be used for 2 days as long as the air-space of the container was equilibrated with 95% air/5% CO2 and the container was gently tumbled (1 to 2 rpm) at 4° C.\nFour ml of the density gradient solution (density=1.104) was poured into each of 15 ml COREX centrifuge tubes (Corning Glass), and the tubes were spun at 10,000 rpm for 5 min, by which a density gradient was automatically formed. Then, 100 μl of blood was overlayered on top of each pre-formed density gradient, and the tubes were span for 10 minutes at 2,500 rpm using a low speed centrifuge with a swing rotor.\nWhen red blood cells of normal subject with normal hemoglobin were spun, they all stayed near a top portion of the gradient (FIG. 2A). […] Then, the red blood cells in the top layer of each tubes, which consists of “non-dense cells”, were collected, washed with the reaction medium, resuspended in the same medium, and used for the experiments.\nAs described above, tubes each containing 4 ml of the density gradient solution with the density of 1.104 were spun at 12,000 rpm for 5 min to form gradient density. K-Cl cotransport experiments were conducted by incubating a suspension of “non-dense cells” with the hematocrit value of 2% at 37 centigrade for 3 hours. Then, 50 μl of each non-dense cell suspension was overlayered on top of the pre-formed density gradient, and the tubes were span for 10 minutes at 2,500 rpm using a low speed centrifuge with a swing rotor. If 500 mM urea was added before the incubation, dense cells were formed due to the stimulation of K-Cl cotransport as shown in FIG. 2D.\nWhen the bottom layer was formed, red cells in both the top and bottom layers were separately collected, washed and hemolyzed in 5 mM phosphate buffer (pH 7.4) containing 0.5 mM EDTA and 0.5% of a detergent, BRIJ-30. From the hemoglobin content as determined by spectrophotometry, we determined the percentage of dense cell formation (Ohnishi, S. T. British J. Haematology 55:665-671, 1983).\nFIG. 3. Dense cells can be formed by incubating non-dense cells at 37 centigrade for 3 hours in the presence of 500 mM urea, which triggers K-Cl cotransport and concomitant dehydration. […] The formation can be inhibited by the addition of inhibitors before starting the incubation. […] However, neither 2 mM vitamin C nor 2 mM vitamin E inhibited the dense cell formation.\nFIG. 4. The inhibition of dense cell formation triggered with 500 mM urea at 37 centigrade for 3 hours by different green tea polyphenols. Open columns are for the oxygenated condition and filled columns for the deoxygenated condition. Abbreviations. CH: (+)-Catechin; EC: (−)-Epicatechin; ECg: (−)-Epicatechin gallate; EGC: (−)-Epigallocatechin; and EGCg: (−)-Epigallocatechin gallate.", "note": "Entries after “also recorded” stand apart in the source; their conditions may differ.", "data": [{"molecule": "Oc1cc(O)c2c(c1)O[C@H](c1ccc(O)c(O)c1)[C@@H](O)C2", "note": "[CH, (+)-Catechin]", "values": [{"measurement": "inhibition of dense cell formation (FIG. 4)", "result": "no effects"}]}, {"molecule": "O=C(O[C@@H]1Cc2c(O)cc(O)cc2O[C@@H]1c1ccc(O)c(O)c1)c1cc(O)c(O)c(O)c1", "note": "[ECg, (−)-Epicatechin gallate]", "values": [{"measurement": "inhibition of dense cell formation (FIG. 4)", "result": "significant effect"}]}, {"molecule": "Oc1cc(O)c2c(c1)O[C@H](c1cc(O)c(O)c(O)c1)[C@H](O)C2", "note": "[EGC, (−)-Epigallocatechin]", "values": [{"measurement": "inhibition of dense cell formation (FIG. 4)", "result": "significant effect"}]}, {"molecule": "O=C1O[C@H]([C@@H](O)CO)C(O)=C1O", "note": "[Vitamin C, reference compound]", "values": [{"measurement": "inhibition of dense cell formation", "setting": "2 mM", "result": "no inhibitory effect"}]}, {"molecule": "COC[C@@H]([C@H](O)[C@H](O)C(=O)NCC[C@H](C)c1nc(/C=C/C[C@@H]2O[C@]3(C[C@@H](O)[C@@H]2C)O[C@H]([C@H](C[C@H](O)[C@H](C)[C@H](O)[C@H](C)/C=C(C)/C(C)=C/C=C/C(C)=C\\C#N)OC)[C@H](OP(=O)(O)O)C3(C)C)co1)N(C)C", "note": "[calyculin A, reference compound]", "values": [{"measurement": "inhibition of dense cell formation", "setting": "25 nM", "result": "inhibited the dense cell formation completely"}]}, {"molecule": "C=C1[C@@H](O)[C@@H]2O[C@]3(CC[C@H](/C=C/[C@@H](C)[C@@H]4CC(C)=C[C@@]5(O[C@H](C[C@@](C)(O)C(=O)O)CC[C@H]5O)O4)O3)CC[C@H]2O[C@@H]1[C@@H](O)C[C@H](C)[C@H]1O[C@@]2(CCCCO2)CC[C@H]1C", "note": "[okadaic acid, reference compound]", "values": [{"measurement": "inhibition of dense cell formation", "setting": "100 nM", "result": "inhibited the dense cell formation completely"}]}, {"molecule": "(−)-Epigallocatechin gallate [EGCg]", "values": [{"measurement": "inhibition of dense cell formation (FIG. 4)", "result": "significant effect; also recorded: maximum inhibitory effect"}, {"measurement": "inhibition of dense cell formation", "setting": "0.2-0.6 mM", "result": "effectively inhibited dense cell formation"}]}, {"molecule": "Vitamin E [reference compound]", "values": [{"measurement": "inhibition of dense cell formation", "setting": "2 mM", "result": "no inhibitory effect"}]}]}
